Test results taken from patent publication US6737383B1, “Herbicidal oxadiazolidines” (priority 1999, dated 2004).

Experiments:
velvetleaf = experiment: Test B pre/postemergence velvetleaf; assay type: in vivo, Abutilon theophrasti
In short: (§1)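 Test chemicals in a non-phytotoxic solvent mixture with surfactant were sprayed preemergence onto planted seeds and postemergence onto plants 2 to 18 cm tall (1- to 4-leaf stage). After twelve to sixteen days in a greenhouse, injury was visually rated against untreated controls from 0 (no effect) to 10 (complete control).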

purple nutsedge = experiment: Test B pre/postemergence purple nutsedge; assay type: in vivo, Cyperus rotundus
In short: as §1

wild oat = experiment: Test B pre/postemergence wild oat; assay type: in vivo, Avena fatua
In short: as §1

bamyardgrass = experiment: Test B flood test barnyardgrass; assay type: in vivo, Echinochloa crus-galli
In short: (§2)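 Each value is a visual injury score relative to controls, with 10 meaning complete control and 0 no effect. Evaluation took place twelve to sixteen days after the 2-leaf-stage plants were treated and kept in the greenhouse.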

morningglory = experiment: Test B pre/postemergence morningglory; assay type: in vivo, Ipomoea hederacea
In short: as §1

rape = experiment: Test B pre/postemergence rape; assay type: in vivo, Brassica napus
In short: as §1

sugar beet = experiment: Test B pre/postemergence sugar beet; assay type: in vivo, Beta vulgaris
In short: as §1

wheat = experiment: Test B pre/postemergence wheat; assay type: in vivo, Triticum aestivum
In short: as §1

cocklebur = experiment: Test B pre/postemergence cocklebur; assay type: in vivo, Xanthium strumarium
In short: as §1

pigweed = experiment: Test B pre/postemergence pigweed; assay type: in vivo, Amaranthus retroflexus
In short: as §1

smallflower flatsedge = experiment: Test B flood test smallflower flatsedge; assay type: in vivo, Cyperus difformis
In short: as §2

duck salad = experiment: Test B flood test duck salad; assay type: in vivo, Heteranthera limosa
In short: as §2

blackgrass = experiment: Test B pre/postemergence blackgrass; assay type: in vivo, Alopecurus myosuroides
In short: as §1

crabgrass = experiment: Test B pre/postemergence crabgrass; assay type: in vivo, Digitaria sanguinalis
In short: as §1

rice = experiment: Test B flood test rice; assay type: in vivo, Oryza sativa
In short: as §2

corn = experiment: Test B pre/postemergence corn; assay type: in vivo, Zea mays
In short: as §1

[1] = Preemergence, Rate 62 g/ha, scale of 0 to 10 where 0 is no effect and 10 is complete control
[2] = Preemergence, Rate 250 g/ha, scale of 0 to 10 where 0 is no effect and 10 is complete control
[3] = Preemergence, Rate 500 g/ha, scale of 0 to 10 where 0 is no effect and 10 is complete control
[4] = Rate 62 g/ha, Postemergence, scale 0 to 10 (0 no effect, 10 complete control)
[5] = Rate 125 g/ha, Postemergence, scale of 0 to 10 where 0 is no effect and 10 is complete control
[6] = Rate 125 g/ha, Preemergence, scale of 0 to 10 where 0 is no effect and 10 is complete control
[7] = Rate 250 g/ha, Postemergence, scale of 0 to 10 where 0 is no effect and 10 is complete control
[8] = Rate 500 g/ha, Postemergence, scale 0 to 10, 0 no effect, 10 complete control
[9] = Rate 62 g/ha, headed Pre-emergence (flood test species), scale 0 to 10 (0 no effect, 10 complete control)
[10] = Rate 125 g/ha, Pre-emergence, flood test species, scale 0 to 10 where 0 is no effect and 10 is complete control
[11] = Rate 250 g/ha, Pre-emergence, flood-test species, scale 0 to 10, 0 is no effect, 10 is complete control
[12] = Rate 500 g/ha, Pre-emergence, flood test species, scale 0 to 10 (0 no effect, 10 complete control)

Cc1ccccc1-n1c(=O)on(C(=O)N(c2ccc3c(c2)CCC3)C(C)C)c1=O [Compound 278]
Velvetleaf plant response rating (velvetleaf; [1]): 0
Velvetleaf plant response rating (velvetleaf; [2]): 0
Plant response rating, Velvetleaf (velvetleaf; [3]): 0
Velvetleaf plant response rating (velvetleaf; [4]): 0
Velvetleaf plant response rating (velvetleaf; [5]): 0
Velvetleaf plant response rating (velvetleaf; [6]): 0
Plant response rating, Velvetleaf (velvetleaf; [7]): 0
Velvetleaf plant response rating (velvetleaf; [8]): 2
Nutsedge plant response rating (purple nutsedge; [2]): 0
Nutsedge plant response rating (purple nutsedge; [4]): 0
Nutsedge plant response rating (purple nutsedge; [5]): 0
Nutsedge plant response rating (purple nutsedge; [6]): 0
Plant response rating, Nutsedge (purple nutsedge; [7]): 0
Nutsedge plant response rating (purple nutsedge; [8]): 0
Wild oats plant response rating (wild oat; [1]): 0
Wild oats plant response rating (wild oat; [2]): 0
Plant response rating, Wild oats (wild oat; [3]): 0
Wild oats plant response rating (wild oat; [4]): 0
Wild oats plant response rating (wild oat; [5]): 0
Plant response rating, Wild oats (wild oat; [7]): 0
Wild oats plant response rating (wild oat; [8]): 0
Barnyardgrass plant response rating (bamyardgrass; [9]): 0
Barnyardgrass plant response rating (bamyardgrass; [10]): 0
Barnyardgrass plant response rating (bamyardgrass; [11]): 0
Barnyardgrass plant response rating (bamyardgrass; [12]): 0
Morningglory plant response rating (morningglory; [1]): 0
Morningglory plant response rating (morningglory; [2]): 0
Plant response rating, Morningglory (morningglory; [3]): 0
Morningglory plant response rating (morningglory; [4]): 3
Morningglory plant response rating (morningglory; [5]): 3
Morningglory plant response rating (morningglory; [6]): 0
Plant response rating, Morningglory (morningglory; [7]): 4
Morningglory plant response rating (morningglory; [8]): 4
Rape plant response rating (rape; [1]): 0
Rape plant response rating (rape; [2]): 0
Plant response rating, Rape (rape; [3]): 0
Rape plant response rating (rape; [4]): 0
Rape plant response rating (rape; [5]): 0
Rape plant response rating (rape; [6]): 0
Plant response rating, Rape (rape; [7]): 0
Rape plant response rating (rape; [8]): 0
Sugarbeets plant response rating (sugar beet; [1]): 0
Sugarbeets plant response rating (sugar beet; [2]): 0
Plant response rating, Sugarbeets (sugar beet; [3]): 0
Sugarbeets plant response rating (sugar beet; [4]): 0
Sugarbeets plant response rating (sugar beet; [5]): 0
Sugarbeets plant response rating (sugar beet; [6]): 0
Plant response rating, Sugarbeets (sugar beet; [7]): 0
Sugarbeets plant response rating (sugar beet; [8]): 0
Wheat plant response rating (wheat; [1]): 0
Wheat plant response rating (wheat; [2]): 0
Plant response rating, Wheat (wheat; [3]): 0
Wheat plant response rating (wheat; [4]): 0
Wheat plant response rating (wheat; [5]): 0
Wheat plant response rating (wheat; [6]): 0
Plant response rating, Wheat (wheat; [7]): 0
Wheat plant response rating (wheat; [8]): 0
Cocklebur plant response rating (cocklebur; [1]): 0
Cocklebur plant response rating (cocklebur; [2]): 0
Plant response rating, Cocklebur (cocklebur; [3]): 0
Cocklebur plant response rating (cocklebur; [4]): 0
Cocklebur plant response rating (cocklebur; [5]): 0
Cocklebur plant response rating (cocklebur; [6]): 0
Plant response rating, Cocklebur (cocklebur; [7]): 0
Cocklebur plant response rating (cocklebur; [8]): 3
Redroot pigweed plant response rating (pigweed; [1]): 0
Redroot pigweed plant response rating (pigweed; [2]): 0
Plant response rating, Redroot pigweed (pigweed; [3]): 0
Redroot pigweed plant response rating (pigweed; [4]): 0
Redroot pigweed plant response rating (pigweed; [5]): 0
Redroot pigweed plant response rating (pigweed; [6]): 0
Plant response rating, Redroot pigweed (pigweed; [7]): 0
Redroot pigweed plant response rating (pigweed; [8]): 4
S. Flatsedge plant response rating (smallflower flatsedge; [9]): 0
S. Flatsedge plant response rating (smallflower flatsedge; [10]): 0
S. Flatsedge plant response rating (smallflower flatsedge; [11]): 0
S. Flatsedge plant response rating (smallflower flatsedge; [12]): 0
Ducksalad plant response rating (duck salad; [9]): 0
Ducksalad plant response rating (duck salad; [10]): 0
Ducksalad plant response rating (duck salad; [11]): 0
Ducksalad plant response rating (duck salad; [12]): 0
Blackgrass plant response rating (blackgrass; [1]): 0
Blackgrass plant response rating (blackgrass; [2]): 0
Plant response rating, Blackgrass (blackgrass; [3]): 0
Blackgrass plant response rating (blackgrass; [4]): 0
Blackgrass plant response rating (blackgrass; [5]): 0
Blackgrass plant response rating (blackgrass; [6]): 0
Plant response rating, Blackgrass (blackgrass; [7]): 0
Blackgrass plant response rating (blackgrass; [8]): 0
Crabgrass plant response rating (crabgrass; [1]): 0
Crabgrass plant response rating (crabgrass; [2]): 2
Plant response rating, Crabgrass (crabgrass; [3]): 4
Crabgrass plant response rating (crabgrass; [4]): 0
Crabgrass plant response rating (crabgrass; [5]): 0
Crabgrass plant response rating (crabgrass; [6]): 1
Plant response rating, Crabgrass (crabgrass; [7]): 0
Crabgrass plant response rating (crabgrass; [8]): 0
Rice plant response rating (rice; [9]): 0
Rice plant response rating (rice; [10]): 0
Rice plant response rating (rice; [11]): 0
Rice plant response rating (rice; [12]): 0
Corn plant response rating (corn; [1]): 0
Corn plant response rating (corn; [2]): 0
Plant response rating, Corn (corn; [3]): 0
Corn plant response rating (corn; [4]): 0
Corn plant response rating (corn; [5]): 0
Corn plant response rating (corn; [6]): 0
Plant response rating, Corn (corn; [7]): 0
Corn plant response rating (corn; [8]): 0
